We go through one substance from patent US20020193564A1, “Oligomeric chaperone proteins” (priority 1999, published 2002).

Test [1] has as its system AI90 (ΔgroEL::kan^R) [pBADEL] E. coli strain. The experiment in a line: Plating ability of AI90 on GroEL depletion at 37° C. The format is cell-based. Here is the method: AI90 (ΔgroEL::kan^R) [pBAD-EL] cells were transformed with the pJC vector series. Transformants were selected at 37° C. on LB supplemented with 50 μg.ml^−1 of kanamycin, 120 μg.mL^−1 of ampicillin, 25 μg.mL^−1 of chloramphenicol and 0.2% L(+)arabinose. Depletion of GroEL protein was analysed at 37° C. by plating the same quantity of AI90 [PBAD-EL+pJC vectors] cells on LB plates containing 1% D(+)glucose or various amount of arabinose.
Each experiment was performed in triplicate. Plasmids carrying no groE genes or encoding the GroE proteins were used as negative or positive controls, respectively.

Another test deals with E. coli SV6 groEL673. The experiment in a line: In vivo complementation of ts groEL673 at 43° C. The format is cell-based. The following applies: plasmids pJC, relative to growth at 30° C. How it is done:
In vivo Complementation Experiments.
Complementation experiments were performed by transforming electro-competent SV2 or SV6 cells with the pJC series of expression vectors and plating an aliquot of the transformation reactions directly at 43° C. The percentage of viable cells relative to the growth at 30° C. was determined. A representative number of clones which grew at 43° C. were incubated in absence of any selective markers at permissive temperature. After prolonged growth the loss of the pJC plasmids and the ts phenotype were verified. Each experiment was performed in duplicate. Plasmids carrying no groE genes or encoding the GroE proteins were used as negative or positive controls, respectively.

In test [2] the target is T1, heat- and dithiothreitol-denatured mtMDH (Sus scrofa, UniProt P00346).
T1 construct: Boehringer-Mannheim); purchased Boehringer-Mannheim; host or cells: pig heart
T1 sequence (P00346 25-338): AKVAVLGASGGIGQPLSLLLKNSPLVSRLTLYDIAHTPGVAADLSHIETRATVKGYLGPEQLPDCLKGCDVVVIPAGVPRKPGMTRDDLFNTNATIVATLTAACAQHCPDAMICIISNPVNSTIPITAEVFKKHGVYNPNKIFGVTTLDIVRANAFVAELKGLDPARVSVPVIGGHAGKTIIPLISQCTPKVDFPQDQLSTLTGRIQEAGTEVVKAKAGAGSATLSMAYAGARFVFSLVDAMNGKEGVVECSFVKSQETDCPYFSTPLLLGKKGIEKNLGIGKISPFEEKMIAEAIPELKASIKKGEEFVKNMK
As to the kind of experiment: In vitro refolding of denatured mtMDH. The following applies: 25° C., chaperone alone, FIG. 7b. The format is biochemical, pig. Here is the method:
In vitro Refolding Experiments.
Refolding assays of pig heart mitochondrial malate dehydrogenase (mtMDH; Boehringer-Mannheim) and aggregation protection were carried out essentially as described (Peres Ben-Zvi, A. P., Chatellier, J., Fersht, A. R. & Goloubinoff, P. (1998) Proc. Natl. Acad. Sci. U.S.A. 95, 15275-15280). The concentrations of MC7 used were between 8-16 μM (reporter to protomer).

“GroEL(1-548): key molecular chaperone in Escherichia coli, 14 subunits of 57.5 kD in two seven membered rings”: in test [1] (0.00% arabinose), the “Plating ability, 0.00 % L(+)arabinose” value was “+++ (growth identical to that in presence of 0.2% L(+)arabinose (100%), in terms of both number and size)”. Moreover, the “Plating ability, 0.01 % L(+)arabinose” value in test [1] (0.01% arabinose) is “+++ (growth identical to that in presence of 0.2% L(+)arabinose (100%), in terms of both number and size)”. The “Plating ability, 0.10 % L(+)arabinose” value in test [1] (0.10% arabinose) is “+++ (growth identical to that in presence of 0.2% L(+)arabinose (100%), in terms of both number and size)”. Also, the “Plating ability, 0.15 % L(+)arabinose” value in test [1] (0.15% arabinose) was “+++ (growth identical to that in presence of 0.2% L(+)arabinose (100%), in terms of both number and size)”. For the same substance, the “Relative colony forming ability, SV6 groEL673” value with E. coli SV6 groEL673 was 1. Also, the “rate of refolding denatured mtMDH” value in test [2] amounted to 0.04 nM/min.
